The text below walks through data of patent US20070037752A1, “Novel alanyl-amino peptidase inhibitors for functionally influencing different cells and treating immunological, inflammatory, neuronal, and other diseases” (priority 2003, published 2007).

The assay has as its target alanyl aminopeptidases (APN) (Homo sapiens, UniProt P15144). The assay is described as follows: Inhibition of alanyl aminopeptidase enzymatic activity, fluorogenic substrate (Ala)2-rhodamine 110. It is filed as biochemical. The method, then:
The inhibition characteristics measured are referred to as IC-50 values or ID50 values (the latter marked with “*”) for said enzyme. The enzymatic activity was determined by means of the fluorogenic substrate/product (Ala)2-rhodamine 110.

The mark [1] stands for this setting: Table 9, unstarred values, read-out: IC50APN.
[2] abbreviates: Table 9, starred values = ID50, read-out: ID50 APN (values marked with *).

Where two headings read alike, the source gives them in different places.

alanyl aminopeptidases (APN), sequence (P15144 whole entry, species assumed): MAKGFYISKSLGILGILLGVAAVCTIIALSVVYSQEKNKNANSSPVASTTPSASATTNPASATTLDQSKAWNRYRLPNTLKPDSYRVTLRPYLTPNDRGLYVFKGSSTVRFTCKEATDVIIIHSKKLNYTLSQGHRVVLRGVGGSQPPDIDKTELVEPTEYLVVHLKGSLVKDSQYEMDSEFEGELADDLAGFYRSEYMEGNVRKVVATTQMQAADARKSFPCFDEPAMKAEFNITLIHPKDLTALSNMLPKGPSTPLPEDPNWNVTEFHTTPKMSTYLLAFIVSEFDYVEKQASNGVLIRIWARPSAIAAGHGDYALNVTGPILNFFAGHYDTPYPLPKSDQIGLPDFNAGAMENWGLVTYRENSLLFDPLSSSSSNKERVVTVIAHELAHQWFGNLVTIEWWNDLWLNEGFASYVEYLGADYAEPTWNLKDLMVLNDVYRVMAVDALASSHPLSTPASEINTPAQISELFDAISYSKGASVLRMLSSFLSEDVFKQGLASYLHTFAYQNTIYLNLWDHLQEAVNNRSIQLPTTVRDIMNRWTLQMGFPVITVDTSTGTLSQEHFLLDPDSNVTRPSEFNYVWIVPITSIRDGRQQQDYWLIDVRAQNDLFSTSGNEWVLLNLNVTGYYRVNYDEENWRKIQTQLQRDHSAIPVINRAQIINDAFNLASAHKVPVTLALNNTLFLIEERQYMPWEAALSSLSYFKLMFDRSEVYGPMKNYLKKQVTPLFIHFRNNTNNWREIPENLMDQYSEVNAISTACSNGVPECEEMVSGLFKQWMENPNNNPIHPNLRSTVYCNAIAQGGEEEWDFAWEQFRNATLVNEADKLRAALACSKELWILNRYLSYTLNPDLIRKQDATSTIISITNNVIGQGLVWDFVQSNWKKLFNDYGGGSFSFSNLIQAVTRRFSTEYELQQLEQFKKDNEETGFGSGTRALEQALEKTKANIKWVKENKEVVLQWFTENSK

Turning to `CCCCCCCSc1nnc2c(n1)OC(C(=O)c1ccccc1)=Nc1ccccc1-2` [A9.074], the IC50 under setting [1] amounted to 28.9 µM.

Regarding `O=C(C1c2ccccc2Oc2ccccc21)n1cc(Cl)cn1` [A9.075], the IC50 under setting [1] was found to be 29.1 µM.

For the compound `C=CCN1C(=O)C(C#N)=C(C)/C(=C\c2ccc(-c3cc(C)c(C)cc3[N+](=O)[O-])o2)C1=O` [A9.076], the IC50 under setting [1] was 29.3 µM.

On to `O=c1[nH]cc([N+](=O)[O-])cc1C(F)(F)F` [A9.077], for which the IC50 under setting [1] came to 29.9 µM.

As to `CCOC(=O)C(C#N)c1c([N+](=O)[O-])c(=O)n(-c2ccccc2)c2ccccc12` (stereo not drawn) [A9.078], the IC50 under setting [1] came out at 30 µM.

With `O=C(N/N=C\c1ccco1)c1cnccn1` [A9.079], the IC50 under setting [1] was found to be 30.1 µM.

Regarding `CC1=C(C#N)C(=O)N=C(O)/C1=C\c1ccc(-c2ccc(Cl)cc2Cl)o1` [A9.080], the IC50 under setting [1] was 30.3 µM.

On to `NC(=O)C1CCN(C(=O)/C(=C/c2ccco2)NC(=O)c2ccccc2)CC1` [A9.081], for which the IC50 under setting [1] was found to be 30.5 µM.

On to `CCc1c(C)nc2c(OC)cccc2c1SCC(=O)O` [A9.082], for which the IC50 under setting [1] turned out to be 31.1 µM.

For `CCCOC(=O)c1cc(-c2ccc(/C=C3/C(=O)N(CC(C)O)C(=O)C(C#N)=C3C)o2)ccc1Cl` (stereo not drawn) [A9.083], under setting [1], the IC50 came to 32 µM.

Turning to `Nc1nc2nc(-c3ccco3)cc(C(F)(F)F)n2n1` [A9.084], the IC50 under setting [1] turned out to be 32.1 µM.

For `CC1=C(C#N)C(O)=NC(=O)/C1=C/c1ccc(-c2ccc(Cl)cc2Cl)o1` [A9.085], under setting [1], the IC50 came to 32.4 µM.

Take `CCOc1cccc(/C=N/NC(=O)C2=C(C)Nc3ccccc3S2)c1O` [A9.086]: the IC50 under setting [1] came to 33.2 µM.

As for `Cc1ccccc1NC(=O)C1C(c2cccs2)C(C#N)=C(SCC(=O)Nc2ccc(Br)cc2)NC1(C)O` (stereo not drawn) [A9.087], the IC50 under setting [1] was 33.9 µM.

On to `CCOC(=O)C1=C(N)NC2=C(CCCC2)C12C(=O)Nc1ccccc12` (stereo not drawn) [A9.088], for which the IC50 under setting [1] was 33.6 µM.

Regarding `CCOC(=O)C1CCN(C(=O)/C(=C/c2ccco2)NC(=O)c2ccc(C)c(C)c2)CC1` [A9.089], the IC50 under setting [1] was found to be 34.5 µM.

Consider `O=[N+]([O-])c1ncn(CN2CCOCC2)n1` [A9.090], for which the IC50 under setting [1] was 36.8 µM.

For `CCCOC(=O)c1cc(-c2ccc(/C=C3\C(=O)NC(=O)C(C#N)=C3C)o2)ccc1Cl` [A9.091], under setting [1], the IC50 stood at 36.8 µM.

Take `CC1CCN(S(=O)(=O)c2ccc3c(c2)C(Cl)(Cl)C(=O)N3)CC1` [A9.092]: under setting [1], the IC50 was found to be 37.2 µM.

Take `CCOC(=O)c1cc(-c2ccc(/C=C3\C(=O)N(CCCO)C(=O)C(C#N)=C3C)o2)ccc1Cl` [A9.094]: the IC50 under setting [1] worked out at 41 µM.

For `COc1cc(C)[n+](OC(=O)N(C)C)c(C)c1` [A9.095], the IC50 under setting [1] was 42.4 µM.

Consider `CC1CCN(C(=O)/C(=C\c2ccco2)NC(=O)c2ccccc2)CC1` [A9.096], for which, under setting [1], the IC50 was found to be 45 µM.

Turning to `CSCCC(Nc1ncnc2c1oc1ccccc12)C(=O)O` (stereo not drawn) [A9.097], under setting [1], the IC50 was determined as 48.4 µM.

For `CCOC(=O)c1cc(Br)ccc1-c1ccc(/C=C2\C(=O)N=C(O)C(C#N)=C2C)o1` [A9.098], the IC50 under setting [1] came to 49.9 µM.

For `CCOC(=O)c1cc(-c2ccc(/C=C3/C(=O)NC(=O)C(C#N)=C3C)o2)ccc1Cl` [A9.099], the IC50 under setting [1] is 52.1 µM.

Take `Cc1ccc(Cn2c(SCCC(=O)O)nc3c2c(=O)[nH]c(=O)n3C)cc1` [A9.100]: under setting [2], the IC50 came to 53.2 µM.

As for `CCCOC(=O)c1cc(-c2ccc(/C=C3\C(=O)N(CCO)C(=O)C(C#N)=C3C)o2)ccc1Cl` [A9.101], under setting [1], the IC50 stood at 54 µM.

`Cc1ccccc1C(=O)N1CCC(C(=O)Nc2ccc(OCc3ccccc3)cc2)CC1` [A9.102]: under setting [1], the IC50 was determined as 54 µM.

On to `Cc1ccc(/C=C(\NC(=O)c2ccccc2)C(=O)NCCN2CCOCC2)o1` [A9.103], for which the IC50 under setting [2] is 55 µM.

Take `O=C(CNS(=O)(=O)c1ccc2c(c1)OCCO2)N/N=C/c1ccco1` [A9.104]: the IC50 under setting [1] was determined as 55.6 µM.

In the case of `CC1(C)N=C(N)N=C(N)N1c1c(Cl)cccc1Cl` [A9.105], the IC50 under setting [1] is 59.8 µM.

For the compound `O=C1Nc2cc(C(=O)N3CCN(c4ccccc4)CC3)ccc2NC1CSCc1ccccc1F` (stereo not drawn) [A9.106], under setting [1], the IC50 amounted to 61.5 µM.

With `O=c1cc(CSc2nnc(-c3ccco3)c(-c3ccco3)n2)c2ccccc2[nH]1` [A9.107], the IC50 under setting [2] stood at 65.1 µM.

On to `Cc1nc(NC(C)C(=O)O)c2nc(C)oc2n1` (stereo not drawn) [A9.108], for which the IC50 under setting [1] stood at 65.8 µM.

Regarding `Cc1ccc(C(=O)N/C(=C\c2ccco2)C(=O)N2CCSCC2)cc1C` [A9.109], the IC50 under setting [1] amounted to 68.9 µM.

Regarding `Cc1ccc(S(=O)(=O)N2CCC(C(=O)N/N=C/c3ccco3)CC2)cc1` [A9.110], under setting [1], the IC50 came out at 69.3 µM.

For the compound `COc1ccc(/C=C2\c3ccccc3-c3ccc(C(=O)CCCCN4CCCCC4)cc32)cc1OC` [A9.111], the IC50 under setting [1] came to 74.6 µM.

Consider `CCc1c(C)nc2ccccc2c1SCC(=O)O` [A9.112], for which, under setting [1], the IC50 worked out at 77.4 µM.

Regarding `Cn1c(=O)c2c(ncn2CC(=O)N/N=C/C=C\c2ccco2)n(C)c1=O` [A9.113], under setting [2], the IC50 worked out at 79.8 µM.

Turning to `CCc1ccc(NC(=O)C2CCN(S(=O)(=O)c3ccc(Cl)cc3)CC2)cc1` [A9.114], the IC50 under setting [2] was found to be 80.4 µM.

For `CCCOC(=O)C(NC(=O)c1ccc(OC)cc1)(N1CCOCC1)C(F)(F)F` (stereo not drawn) [A9.115], the IC50 under setting [1] stood at 90.2 µM.

In the case of `CC1(C)CC(CC/N=C/c2ccccc2)(Cc2ccccc2)CCO1` (stereo not drawn) [A9.116], the IC50 under setting [1] turned out to be 93.6 µM.

On to `O=C(OCCN1CCCCC1)C1c2ccccc2Oc2ccccc21` [A9.117], for which, under setting [2], the IC50 came out at 94.8 µM.

Turning to `Cc1cccc[n+]1OC(=O)N1CCCCC1` [A9.118], the IC50 under setting [2] was found to be 96.7 µM.

Consider `C#CCN1C(c2cnccn2)=NC(CC(C)C)C1C(=O)Nc1c(C)cccc1C` (stereo not drawn) [A9.119], for which the IC50 under setting [2] was 103 µM.

As to `COc1c(OCC(O)C(C)(C)O)ccc2c1N=C1OC=CC1C2OC` (stereo not drawn) [A9.120], the IC50 under setting [2] turned out to be 117 µM.

On to `CC1=C(C#N)C(=O)N(CCO)C(=O)/C1=C\c1ccc(-c2ccc(C)c(Cl)c2)o1` [A9.121], for which the IC50 under setting [1] amounted to 125 µM.

Turning to `CC(=O)Oc1ccc2c(=O)c(-c3cnn(-c4ccccc4)c3)c(C(F)(F)F)oc2c1OC(C)=O` [A9.122], the IC50 under setting [2] turned out to be 134 µM.

In the case of `NCCCNC(=O)C1Cc2ncn(Cc3ccccc3[N+](=O)[O-])c2CN1Cc1ccccn1` (stereo not drawn) [A9.123], the IC50 under setting [1] was determined as 138 µM.

Regarding `CCCOC(=O)C(NC(=O)c1ccccc1)(N1CCOCC1)C(F)(F)F` (stereo not drawn) [A9.125], the IC50 under setting [2] was determined as 186 µM.

Turning to `CC(C)Oc1ccc(/C=N/CCC2(c3ccccc3)CCOC(C)(C)C2)cc1` (stereo not drawn) [A9.126], under setting [2], the IC50 turned out to be 197 µM.

As for `O=C(/C=C/c1ccco1)NCCCN1CCOCC1` [A9.127], under setting [2], the IC50 was 208 µM.

As to `CC(C)N1CCN(Cc2ccccc2[N+](=O)[O-])CC1` [A9.128], the IC50 under setting [2] worked out at 252 µM.

`Brc1cc2c(cc1Br)OCCOCCOCCOCCOCCO2` [A10.001]: the IC50 (Table 10, read-out: IC50APN) amounted to 0.7 µM.

Turning to `O=C(N/N=C\c1ccco1)c1ccc(S(=O)(=O)N2CCCCCC2)cc1` [A10.002], the IC50 (Table 10, read-out: IC50APN) was determined as 8 µM.

Regarding `COc1ccc(Cl)cc1C(=O)N/C(=C/c1ccco1)C(=O)N1CC2CC(C1)c1cccc(=O)n1C2` (stereo not drawn) [A10.003], the IC50 (Table 10, read-out: IC50APN) came out at 8.1 µM.

On to `C/C(=N/O)c1ccc2c(c1)OCCOCCOc1cc(/C(C)=N\O)ccc1OCCOCCO2` [A10.004], for which, where the note is “Table 10, read-out: IC50APN”, the IC50 turned out to be 8.6 µM.

For the compound `Cc1ccc(C(=O)N/C(=C\c2ccco2)C(=O)N2CC3CC(C2)c2cccc(=O)n2C3)cc1` (stereo not drawn) [A10.005], the IC50 (Table 10, read-out: IC50APN) was found to be 11 µM.

As for `Cc1ccc(C(=O)N/C(=C\c2ccco2)C(=O)N2CC3CC(C2)c2cccc(=O)n2C3)cc1C` (stereo not drawn) [A10.006], under “Table 10, read-out: IC50APN”, the IC50 stood at 11.8 µM.

As to `Cc1ccc(C(=O)N/C(=C\c2ccco2)C(=O)N2CCCN(C)CC2)cc1C` [A10.007], the IC50 (Table 10, read-out: IC50APN) stood at 32.1 µM.
